Experiments:
[1] = tested on: anti-OVA-specific IgG1 subclass antibody; experiment: Adjuvant activity: anti-OVA-specific IgG1 subclass antibody in serum after secondary immunization (Examples 12, 19, 20, 21); format: in vivo, BALB/c mice; details: Example 21; s.c.; SZ62 0.256 μmol in 5% αCD saline, CpG 5 μg, MPL 5 μg, Addavax 1:1, Alum; two weeks from secondary immunization
[2] = tested on: anti-OVA-specific IgG2a subclass antibody; experiment: Adjuvant activity: anti-OVA-specific IgG2a subclass antibody in serum after secondary immunization; format: in vivo, BALB/c mice; details: Example 21; s.c.; SZ62 0.256 μmol in 5% αCD saline, CpG 5 μg, MPL 5 μg, Addavax 1:1, Alum; two weeks from secondary immunization
Method: Two weeks from the secondary immunization, the whole blood was extracted under anesthesia, and the obtained serum sample was measured for anti-OVA-specific IgG1 subclass antibody.
Measurement Method of anti-OVA-specific IgG2a Subclass Antibody
To a 96 well plate was added 5 μg/ml OVA at 100 μl/well, and the mixture was incubated at 4° C. overnight. After incubation, the mixture was washed three times with 200 μl of PBS-T (PBS+0.05%(v/v) Tween 20) per well, and blocked with 100 μl of 5% FCS/PBS solution per well at room temperature for 1 to 2 hr. Thereafter, the mixture was washed three times with PBS-T (200 μl/well), a diluted serum sample (100 μl/well) or the same amount of 5% FCS/PBS solution as a control was added, and the mixture was incubated at 37° C. for 1 hr. Thereafter, the mixture was washed five times with PBS-T (200 μl/well), a diluted biotinylated anti-mouse IgG2a antibody (100 μl/well) was added, and the mixture was incubated at 37° C. for 45 min. Thereafter, the mixture was washed five times with PBS-T (200 μl/well), a diluted anti-biotin-HRP antibody was added (100 μl/well), and the mixture was incubated at 37° C. for another 30 min. Thereafter, the mixture was washed five times with PBS-T (200 μl/well), TMB substrate solution was added (100 μl/well), and the mixture was incubated at room temperature for 10-15 min. Thereafter, a reaction quenching liquid (2N sulfuric acid solution) was added (50 μl/well) to discontinue a color developing reaction, and the absorbance (OD Value=450 nm) was measured by a microplate reader.
Measurement Method of Concentration of anti-OVA-specific IgG1 Subclass Antibody and anti-OVA-specific IgG2a Subclass Antibody
To a 96 well plate was added 5 μg/ml OVA at 100 μl/well, and the mixture was incubated at 4° C. overnight. After incubation, the mixture was washed three times with 200 μl of PBS-T (PBS+0.05% (v/v) Tween 20) per well, and blocked with 100 μl of 5% FCS/PBS solution per well at room temperature for 1 to for 2 hr. […] When an anti-OVA-specific IgG2a subclass antibody was measured, the standard of an anti-OVA-specific IgG2a subclass antibody was added at 50 ng/ml, 25 ng/ml, 12,5 ng/ml, 6.25 ng/ml, 3.125 ng/ml, 1.56 ng/ml, 0.781 ng/ml, 0.391 ng/ml, 0.195 ng/ml, 0.098 ng/ml, 0.049 ng/ml, 0 ng/ml, per 1 well. […] Thereafter, a reaction quenching liquid (2N sulfuric acid solution) was added (50 μl/well) to discontinue a color developing reaction, and the absorbance (OD Value=450 nm) was measured by a microplate reader. A standard curve was drawn from the measured OD values, and the concentration was calculated.

monophosphoryl lipid [MPL, reference compound]
anti-OVA-specific IgG1 subclass antibody production as compared to the OVA single administration group [1]: significantly increased | anti-OVA-specific IgG2a subclass antibody production as compared to the OVA single administration group [2]: tended to increase

Source: patent US20180243421A1, “IMMUNOSTIMULATING AGENT” (AJINOMOTO CO., INC., priority 2015, published 2018)
